Measured values published in PMC7046683 (Frontiers in Oncology, 2020).
Read-outs that look alike come from different tables or passages of the source.

Key:
[1] = mice; cited from earlier work
[2] = humans; cited from earlier work
[3] = 4OH-tamoxifen glucuronidation assay in liver microsomes, with or without morphine; type: in vitro ADME; details: male, C57/BL6J, mouse
[4] = Blood levels and metabolic ratios of tamoxifen and its metabolites after two tamoxifen injections, with saline or morphine (LC-MS/MS); details: for Change of blood concentration, second vs first tamoxifen injection: saline co-injections
Description: Experiments were performed with 11- to 29-week-old female C57BL/6J mice (23 ± 4 g; Charles River, L'Arbresle, France). Animals were housed according to a 12-h light–dark cycle, at a temperature of 22°C ± 2°C and provided with food and water ad libitum. All procedures were performed in accordance with European directives (2010/63/EU) and were approved by the regional ethics committee and the French Ministry of Agriculture (license no. APAFIS#16827-2018092113192911 v4 to YG).
Statistical analysis was performed using GraphPad Prism 6 Software. […] Groups were compared using multiple t-tests.

[5] = read-out: Km for morphine glucuronidation; mice; cited from earlier work
[6] = three i.p. injections of morphine 10 mg/kg at 0, 1 and 2 h
[7] = tamoxifen 10 mg/kg i.p. at 0 and 48 h

CC/C(=C(\c1ccccc1)c1ccc(OCCN(C)C)cc1)c1ccccc1 [tamoxifen]
Half-life [1]: 6.8 h
Half-life [2]: 27 h

CC/C(=C(\c1ccc(O)cc1)c1ccc(OCCN(C)C)cc1)c1ccccc1 [4OH-tamoxifen]
Km at 20 s [3]: 68 µM

CN1CC[C@]23c4c5ccc(O[C@@H]6O[C@H](C(=O)O)[C@@H](O)[C@H](O)[C@H]6O)c4O[C@H]2[C@@H](O)C=C[C@H]3[C@H]1C5 [M3G, morphine-3-glucuronide]
Time at which the highest blood concentration was reached [6]: 2 h
Highest concentration in the blood (three i.p. injections of morphine 10 mg/kg at 0, 1 and 2 h, mean ± SEM): 9,773 ± 1,274 pmol/ml

CC/C(=C(/c1ccc(OCCNC)cc1)c1ccc(O[C@@H]2O[C@H](C(=O)O)[C@@H](O)[C@H](O)[C@H]2O)cc1)c1ccccc1 [endoxifen-glucuronide]
Change of blood concentration, second vs first tamoxifen injection [4, 7]: did not vary significantly
Increase of endoxifen-glucuronide/endoxifen ratio, second vs first tamoxifen injection ([4]; tamoxifen 10 mg/kg i.p. twice, saline, t = 2 h): 3 fold

CC/C(=C(\c1ccc(OCCN(C)C)cc1)c1ccc(O[C@H]2O[C@@H](C(=O)O)[C@H](O)[C@@H](O)[C@@H]2O)cc1)c1ccccc1 [4OH-tamoxifen-glucuronide]
Change of blood concentration, second vs first tamoxifen injection [4, 7]: significant increase

CC/C(=C(\c1ccccc1)c1ccc(OCCNC)cc1)c1ccccc1 [N-desmethyltamoxifen]
Change of blood concentration, second vs first tamoxifen injection [4, 7]: significant increase
Change of blood concentration after tamoxifen + morphine vs first injection of tamoxifen alone ([4]; tamoxifen 10 mg/kg i.p. at 0 and 48 h, morphine 10 mg/kg i.p. at 48, 49 and 50 h): Only a tendency
N-desmethyltamoxifen/tamoxifen ratio after morphine ([4]; tamoxifen + morphine 3 x 10 mg/kg i.p.): not altered
N-desmethyltamoxifen/tamoxifen ratio, second vs first tamoxifen injection ([4]; tamoxifen twice, saline): no difference

CN1CC[C@]23c4c5ccc(O)c4O[C@H]2[C@@H](O)C=C[C@H]3[C@H]1C5 [morphine, reference compound]
Km [5]: 500 µM
Presence in blood after 8 h (three i.p. injections of morphine 10 mg/kg): still present
Time at which the highest blood concentration was reached [6]: 2 h
